Measured values from patent US7273710B2, “Method for screening MCH receptor antagonist/agonist” (Takeda Pharmaceutical Company Limited, priority 2000, dated 2007).
Positions of bridges follow the written chain, without caps; N, C: chain ends. No end group written: not given here.

What was measured:
human SLT [1] = molecular target: T1, human SLT (Homo sapiens, UniProt Q969V1); test: Inhibition of forskolin-stimulated cAMP production in human SLT-expressing CHO cells; format: cell-based; conditions: CHO/hSLT cells, 2 μM forskolin, FIG. 2
T1 construct: expressed in transfected cells; host or cells: membrane fraction of CHO/hSLT cells (CHO dhfr- transfected with pAKKO-hSLT)

human SLT [2] = molecular target: T1, human SLT; test: FLIPR assay of intracellular Ca ion level in human SLT-expressing CHO cells; format: cell-based; conditions: CHO/hSLT cells, Fluo 3-AM, FIG. 5
human SLT [3] = molecular target: T1, human SLT; test: Release of [3H] arachidonic acid metabolite in human SLT-expressing CHO cells; format: cell-based; conditions: CHO/hSLT cells, FIG. 6
human SLT [4] = molecular target: T1, human SLT; test: Receptor binding assay with [125I]-labeled MCH (4-19) on cell membrane fraction of human SLT-expressing CHO cells; conditions: membrane fractions from CHO/hSLT clones #1, 26, 36, 25° C., 60 minutes, FIG. 3

T1 sequence (Q969V1 whole entry): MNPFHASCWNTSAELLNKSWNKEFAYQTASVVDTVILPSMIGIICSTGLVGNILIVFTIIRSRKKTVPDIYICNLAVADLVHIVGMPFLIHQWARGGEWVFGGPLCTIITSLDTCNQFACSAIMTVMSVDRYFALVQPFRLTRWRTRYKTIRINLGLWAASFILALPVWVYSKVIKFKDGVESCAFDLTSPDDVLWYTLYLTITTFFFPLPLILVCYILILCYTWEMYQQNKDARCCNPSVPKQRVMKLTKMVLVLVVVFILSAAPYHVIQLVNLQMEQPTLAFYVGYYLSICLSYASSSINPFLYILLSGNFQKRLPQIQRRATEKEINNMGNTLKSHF

| Compound | concentration at which the intracellular cAMP was clearly decreased (human SLT [1]; 37° C., 30 minutes) [pM] | inhibition of cAMP production, concentration dependence (human SLT [1]) | increase of the intracellular Ca ion level (human SLT [2]) | activity to induce the release of the arachidonic acid metabolite (human SLT [3]) | specific binding to cell membrane fraction (human SLT [4]) |
| --- | --- | --- | --- | --- | --- |
| CSCC[C@@H]1NC(=O)[C@@H](NC(=O)[C@H](CCCNC(=N)N)NC(=O)[C@H](CC(C)C)NC(=O)[C@H](CCSC)NC(=O)[C@H](CC(=O)O)NC(=O)[C@H](Cc2ccccc2)NC(=O)[C@@H](N)CC(=O)O)CSSC[C@@H](C(=O)N[C@@H](Cc2c[nH]c3ccccc23)C(=O)N[C@@H](CCC(N)=O)C(=O)N[C@H](C(=O)O)C(C)C)NC(=O)[C@@H]2CCCN2C(=O)[C@H](CCCNC(=N)N)NC(=O)[C@H](Cc2ccc(O)cc2)NC(=O)[C@H](C(C)C)NC(=O)[C@H](CCCNC(=N)N)NC(=O)CNC(=O)[C@H](CC(C)C)NC1=O [MCH, Asp-Phe-Asp-Met-Leu-Arg-Cys-Met-Leu-Gly-Arg-Val-Tyr-Arg-Pro-Cys-Trp-Gln-V al] | 30 | decreased in a dose-dependent manner | increases the intracellular Ca ion level in human SLT-expressing CHO cells in a manner dependent on the concentration | in a does-dependent manner |  |
| [^125I]-[N-3-(4-hydroxy-3-iodophenyl)propionyl)-Met^4]-MCH (4-19) ({3‑(4-hydroxy-3-(125I)iodophenyl)propionyl}-MLRCMLGRVYRPCWQV; disulfide 4-13) [[^125I]-labeled MCH (4-19)] |  |  |  |  | dependent on the concentration of membrane fraction was observed |
